In patent publication US20100093001A1 (priority 2006, published 2010):

What was measured:
[1] = tested on: primary neurons
[2] = tested on: neuronal cells
Procedure: Amyloid-beta-42 was incubated for one week at 1 mg/mL in 50mM Tris-HCl pH 7.4 and controlled the presence of amyloid-beta-42 fibers by electron microscopy. These mature amyloid-beta-42 (Aβ42) fibers were subsequently harvested by centrifugation and added to primary hippocampal mouse neurons and differentiated N2A cells at a final concentration of 5 μM.

| Substance | cytotoxicity [1] | N. Red (neutral red incorporation) [2] |
| --- | --- | --- |
| H-ISFLIF-OH [NH2—ISFLIF—COOH] | dramatic cytotoxicity |  |
| H-KVQIIN-OH [NH2—KVQIIN—COOH] | dramatic cytotoxicity |  |
| H-STVIIE-OH [NH2—STVIIE—COOH] | dramatic cytotoxicity |  |
| ganglioside GM1 |  | 36.1 ± 2.9 |
